Data taken from patent publication US7902175B2, “Aminopropanol derivatives” (Novartis AG, priority 2003, dated 2011).

Assays:
S1P-4 = molecular target: T1, S1P-4 (Homo sapiens, UniProt O95977); test: GTPγS binding assay using S1P receptor/HEK293 membrane preparations; assay type: biochemical; conditions: for EC50: GTPγS binding, transiently transfected HEK293 membranes
T1 construct: expressed in transfected cells; host or cells: HEK293 (transient, calcium phosphate); crude membranes
T1 sequence (O95977 1-384): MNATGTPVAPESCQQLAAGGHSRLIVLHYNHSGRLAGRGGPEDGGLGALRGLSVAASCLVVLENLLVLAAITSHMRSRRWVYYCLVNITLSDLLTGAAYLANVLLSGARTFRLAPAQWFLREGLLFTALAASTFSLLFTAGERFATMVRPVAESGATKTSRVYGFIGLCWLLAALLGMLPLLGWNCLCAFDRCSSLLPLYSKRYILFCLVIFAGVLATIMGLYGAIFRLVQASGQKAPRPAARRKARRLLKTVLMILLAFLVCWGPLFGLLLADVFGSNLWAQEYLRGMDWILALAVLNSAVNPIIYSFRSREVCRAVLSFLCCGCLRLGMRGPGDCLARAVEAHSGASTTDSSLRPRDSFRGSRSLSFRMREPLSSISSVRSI
Excerpt: (§1) The compounds of the invention have binding affinity to individual human S1P receptors as determined in following assays:
(§2) Transient Transfection of Human S1P Receptors into HEK293 Cells
(§3) S1P receptors and Gi proteins are cloned, and equal amounts of 4 cDNAs for the S1P receptor, Gi-α, Gi-β and Gi-γ are mixed and used to transfect monolayers of HEK293 cells using the calcium phosphate precipitate method (M. Wigler et al., Cell. 1977; 11; 223 and DS. Im et al., Mol. Pharmacol. 2000; 57; 753). Briefly, a DNA mixture containing 25 μg of DNA and 0.25 M CaCl is added to HEPES-buffered 2 mM Na2HPO4. Subconfluent monolayers of HEK293 cells are poisoned with 25 […], and the DNA precipitate is then applied to the cells. After 4 h, the monolayers are washed with phosphate-buffered saline and refed media (90% 1:1 Dulbecco's modified essential media (DMEM):F-12+10% fetal bovine serum). The cells are harvested 48-72 h after addition of the DNA by scraping in HME buffer (in mM: 20 HEPES, 5 MgCl2, 1 EDTA, pH 7.4) containing 10% sucrose on ice, and disrupted using a Dounce homogenizer. After centrifugation at 800×g, the supernatant is diluted with HME without sucrose and centrifuged at 100,000×g for 1 h. The resulting pellet is rehomogenized and centrifuged a second hour at 100,000×g. This crude membrane pellet is resuspended in HME with sucrose, aliquoted, and snap-frozen by immersion in liquid nitrogen. The membranes are stored at […] Protein concentration is determined spectroscopically by Bradford protein assay.
(§4) GTPγS Binding Assay Using S1P Receptor/HEK293 Membrane Preparations
(§5) GTPγS binding experiments are performed as described by D S. Im et al., Mol. Pharmacol. 2000; 57:753. Ligand-mediated GTPγS binding to G-proteins is measured in GTP binding buffer (in mM: 50 HEPES, 100 NaCl, 10 MgCl2, pH 7.5) using 25 μg of a membrane preparation from transiently transfected HEK293 cells. Ligand is added to membranes in the presence of 10 μM GDP and 0.1 nM [^35S]GTPγS (1200 Ci/mmol) and incubated at 30° C. for 30 min. Bound GTPγS is separated from unbound using the Brandel harvester (Gaithersburg, Md.) and counted with a liquid scintillation counter.

human S1P receptors = test: GTPγS binding assay, S1P receptors in general; assay type: biochemical
Excerpt: as §1, §2
S1P receptors and Gi proteins are cloned, and equal amounts of 4 cDNAs for the S1P receptor, Gi-α, Gi-β and Gi-γ are mixed and used to transfect monolayers of HEK293 cells using the calcium phosphate precipitate method (M. Wigler et al., Cell. 1977; 11; 223 and DS. Im et al., Mol. Pharmacol. 2000; 57; 753). Briefly, a DNA mixture containing 25 μg of DNA and 0.25 M CaCl is added to HEPES-buffered 2 mM Na2HPO4. Subconfluent monolayers of HEK293 cells are poisoned with 25 […], and the DNA precipitate is then applied to the cells. […] Protein concentration is determined spectroscopically by Bradford protein assay. […]
as §5, with “Ligand is added to membranes in the presence of 10 μM GDP and 0.1 nM [^35S]GTPγS (1200 Ci/mmol) and incubated at 30° C. for 30 min.” left out

S1P-1 = molecular target: T2, S1P-1 (Homo sapiens, UniProt P21453); test: GTPγS binding assay using S1P receptor/HEK293 membrane preparations; assay type: biochemical
T2 construct: expressed in transfected cells; host or cells: HEK293 (transient, calcium phosphate); crude membranes
T2 sequence (P21453 whole entry): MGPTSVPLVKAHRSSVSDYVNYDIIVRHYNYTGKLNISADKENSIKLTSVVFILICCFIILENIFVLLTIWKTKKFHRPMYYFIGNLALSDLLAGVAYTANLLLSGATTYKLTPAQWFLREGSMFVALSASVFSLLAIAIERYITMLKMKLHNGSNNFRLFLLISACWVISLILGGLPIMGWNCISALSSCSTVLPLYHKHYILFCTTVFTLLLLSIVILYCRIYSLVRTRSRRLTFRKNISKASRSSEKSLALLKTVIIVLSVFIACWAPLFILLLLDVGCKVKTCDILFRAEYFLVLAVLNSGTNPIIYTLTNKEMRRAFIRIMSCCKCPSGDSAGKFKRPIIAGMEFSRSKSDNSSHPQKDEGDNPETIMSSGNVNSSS
Experimental: as §2
as §3, with “Briefly,” for “S1P receptors and Gi proteins are cloned, and equal amounts of 4 cDNAs for the S1P receptor, Gi-α, Gi-β and Gi-γ are mixed and used to transfect monolayers of HEK293 cells using the calcium phosphate precipitate method (M. Wigler et al., Cell. 1977; 11; 223 and DS. Im et al., Mol. Pharmacol. 2000; 57; 753). Briefly,”
as §4
as §5, with “Ligand-mediated” for “GTPγS binding experiments are performed as described by D S. Im et al., Mol. Pharmacol. 2000; 57:753. Ligand-mediated”

S1P-5 = molecular target: T3, S1P-5 (Homo sapiens, UniProt Q9H228); test: as above; assay type: biochemical
T3 construct: expressed in transfected cells; host or cells: HEK293 (transient, calcium phosphate); crude membranes
T3 sequence (Q9H228 whole entry): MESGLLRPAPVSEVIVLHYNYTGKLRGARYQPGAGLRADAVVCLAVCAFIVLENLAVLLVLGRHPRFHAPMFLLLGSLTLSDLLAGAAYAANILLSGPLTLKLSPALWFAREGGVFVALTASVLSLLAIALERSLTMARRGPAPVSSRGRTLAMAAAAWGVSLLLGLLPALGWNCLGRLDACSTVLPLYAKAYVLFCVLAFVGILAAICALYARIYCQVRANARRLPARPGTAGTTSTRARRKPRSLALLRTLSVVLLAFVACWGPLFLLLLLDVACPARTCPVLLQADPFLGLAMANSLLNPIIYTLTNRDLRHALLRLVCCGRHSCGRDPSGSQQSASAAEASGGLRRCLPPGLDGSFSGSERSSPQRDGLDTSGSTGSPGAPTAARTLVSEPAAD
Experimental: as §2
as §3, with “Briefly,” for “S1P receptors and Gi proteins are cloned, and equal amounts of 4 cDNAs for the S1P receptor, Gi-α, Gi-β and Gi-γ are mixed and used to transfect monolayers of HEK293 cells using the calcium phosphate precipitate method (M. Wigler et al., Cell. 1977; 11; 223 and DS. Im et al., Mol. Pharmacol. 2000; 57; 753). Briefly,”
as §4
as §5, with “Ligand-mediated” for “GTPγS binding experiments are performed as described by D S. Im et al., Mol. Pharmacol. 2000; 57:753. Ligand-mediated”

S1P-3 = molecular target: T4, S1P-3 (Homo sapiens, UniProt Q99500); test: as above; assay type: biochemical
T4 construct: expressed in transfected cells; host or cells: HEK293 (transient, calcium phosphate); crude membranes
T4 sequence (Q99500 whole entry): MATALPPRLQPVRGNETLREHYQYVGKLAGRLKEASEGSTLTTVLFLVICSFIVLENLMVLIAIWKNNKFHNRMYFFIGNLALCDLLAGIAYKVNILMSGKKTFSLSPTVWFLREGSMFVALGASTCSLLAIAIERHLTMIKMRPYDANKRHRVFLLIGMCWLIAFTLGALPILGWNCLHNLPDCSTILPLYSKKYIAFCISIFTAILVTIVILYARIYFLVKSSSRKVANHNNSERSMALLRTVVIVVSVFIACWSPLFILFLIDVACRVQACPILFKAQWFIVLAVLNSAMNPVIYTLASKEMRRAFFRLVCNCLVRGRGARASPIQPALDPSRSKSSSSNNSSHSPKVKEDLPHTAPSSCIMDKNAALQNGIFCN
Experimental: as §2, §3, §4, §5

S1P-2 = molecular target: T5, S1P-2 (Homo sapiens, UniProt O95136); test: as above; assay type: biochemical; conditions: transiently transfected HEK293 membranes
T5 construct: expressed in transfected cells; host or cells: HEK293 (transient, calcium phosphate); crude membranes
T5 sequence (O95136 whole entry): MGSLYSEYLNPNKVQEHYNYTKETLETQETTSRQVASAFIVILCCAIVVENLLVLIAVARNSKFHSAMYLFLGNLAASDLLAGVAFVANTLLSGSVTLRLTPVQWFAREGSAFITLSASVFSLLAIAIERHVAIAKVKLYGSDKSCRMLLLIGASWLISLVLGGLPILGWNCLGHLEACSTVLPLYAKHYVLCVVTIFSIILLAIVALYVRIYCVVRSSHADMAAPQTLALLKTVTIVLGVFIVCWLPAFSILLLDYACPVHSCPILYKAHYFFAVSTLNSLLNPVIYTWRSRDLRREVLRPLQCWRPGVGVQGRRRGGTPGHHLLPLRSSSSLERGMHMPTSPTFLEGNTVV
Experimental: as §2, §3, §4, §5

[1] = Chiral HPLC determination of FTY720-phosphate enantiomers in blood after dosing 14C-labeled FTY720; assay type: in vivo; conditions: rats, orally 7.5 mg/kg or intravenous infusion 4 mg/kg; blood e.g. 3 or 72 hours after dosing
Excerpt: In a further aspect, the present invention provides a method of determining the amount of the R and/or S isomers of a compound of formula II present in a sample, comprising (a) reacting the compound of formula II present in the sample with benzene-1,2-dicarbaldehyde to form a compound of formula I, and separating the R and S isomers of the compound of formula I by HPLC. The HPLC is preferably performed as described above, using a chiral ion-exchange phase e.g. based on quinine carbamate or quinidine carbamate. The compounds of formula I are useful as intermediates in such a method. The sample may be e.g. a sample derived from a bodily fluid e.g. blood, plasma, saliva, or urine, and may be first subjected to one or more separation steps, (e.g. extraction with methanol and/or non-chiral HPLC) in order to separate the compound of formula II from the fluid. By such a method the amount of the active R or S enantiomer in the sample may be determined. […]
For example, achiral 14C-labeled FTY720 is administered to rats either orally (7.5 mg/kg) or by intravenous infusion (4 mg/kg). […] The derivative is spiked with unlabelled OPA-derivatized R and S FTY720-phosphate as retention time markers (monitored by UV at 215 nm) and subjected to chiral HPLC separation using a ProntoSIL Chiral AX QN-1 column.

[2] = GTPγS binding, transiently transfected HEK293 membranes

CCCCCCCCc1ccc(CCC(N)(CO)COP(=O)(O)O)cc1 (single isomer, unassigned) [(R)-FTY720-P, phosphoric acid mono-[2-amino-2-hydroxymethyl-4-(4-octyl-phenyl)-butyl]ester]
EC50 (S1P-4): 80.1 nM | agonistic effects on S1P receptors (human S1P receptors): only at very high concentrations

CCCCCCCCc1ccc(CCC(N)(CO)COP(=O)(O)O)cc1 (single isomer, unassigned) [(S)-FTY720-P, phosphoric acid mono-[2-amino-2-hydroxymethyl-4-(4-octyl-phenyl)-butyl]ester]
agonist character on S1P1 (S1P-1; in the low nanomolar range): full agonist | agonist character on S1P5 (S1P-5; in the low nanomolar range): partial agonist | agonist character on S1P3 (S1P-3; in the low nanomolar range): full agonist | EC50 (S1P-4): 0.75 nM | agonist character on S1P4 (S1P-4; in the low nanomolar range): partial agonist

N[C@@](CO)(CCc1ccc(OCCc2ccc(C(F)(F)F)cc2)cc1)COP(=O)(O)O [Ex. 14, Phosphoric Acid mono-((R)-2-amino-2-hydroxymethyl-4-{4-[2-(4-trifluoromethyl-phenyl)-ethoxy]-phenyl}-butyl)ester]
EC50 (S1P-1; [2]): 0.4 nM | EC50 (S1P-5; [2]): 7.7 nM | EC50 (S1P-2): > 10000 nM | EC50 (S1P-3; [2]): 140 nM | EC50 (S1P-4): 6.6 nM

CCCCCCCCc1ccc(CCC(N)(CO)CO)cc1 [FTY720, 2-amino-2-[2-(4-octylphenyl)ethyl]propane-1,3-diol]
R-enantiomer of [14C]FTY720-phosphate in blood [1]: not detectable | enantiomer of the metabolite [14C]FTY720-phosphate in all blood samples [1]: exclusively the pharmacologically active S-enantiomer
